{"source": "patent US20250346585A1", "about": "(Alexion Pharmaceuticals, Inc., priority 2022, published 2025)"}
{"target": "Human complement C1s enzyme (Homo sapiens (Human), UniProt P09871)", "sequence (P09871 438-688 limits assumed)": "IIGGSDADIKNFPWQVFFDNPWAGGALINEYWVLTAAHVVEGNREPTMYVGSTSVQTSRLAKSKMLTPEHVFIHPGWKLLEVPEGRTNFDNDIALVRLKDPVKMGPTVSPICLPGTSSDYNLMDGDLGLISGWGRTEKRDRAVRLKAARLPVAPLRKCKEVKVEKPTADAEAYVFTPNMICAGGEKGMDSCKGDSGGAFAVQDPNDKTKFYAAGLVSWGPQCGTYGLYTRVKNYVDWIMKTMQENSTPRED", "sequence (P09871 16-437 partner limits assumed)": "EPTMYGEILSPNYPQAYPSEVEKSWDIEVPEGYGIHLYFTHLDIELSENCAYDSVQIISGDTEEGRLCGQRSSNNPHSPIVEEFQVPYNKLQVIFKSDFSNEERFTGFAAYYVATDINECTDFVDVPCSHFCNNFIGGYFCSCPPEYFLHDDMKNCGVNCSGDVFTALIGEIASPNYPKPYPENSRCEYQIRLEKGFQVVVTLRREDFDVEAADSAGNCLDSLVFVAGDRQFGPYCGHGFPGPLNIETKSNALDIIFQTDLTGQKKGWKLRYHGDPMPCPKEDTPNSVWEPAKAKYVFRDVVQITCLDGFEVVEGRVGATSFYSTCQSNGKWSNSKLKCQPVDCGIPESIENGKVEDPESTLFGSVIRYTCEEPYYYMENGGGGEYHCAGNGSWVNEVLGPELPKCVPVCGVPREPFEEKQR", "experiment": "Human C1s enzyme assay", "type": "biochemical", "conditions": "Human C1s enzyme assay of Example 3; read-out: IC50 (Stars)", "how_it_was_run": "(§1)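 Purified serum-derived human C1s (1.16 nM final) preincubated 5 min at room temperature with compound in 50 mM Tris, 1 M NaCl, pH 7.5. Z-L-Lys-SBzl thioester substrate and DTNB added (100 μM each, final); A405 read every 30 s for 30 min. IC50 from nonlinear regression of reaction rates against compound concentration.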", "units": {"IC50": "nM"}}
{"smiles": "C[C@@H](NC(=O)[C@@H]1C[C@@H](OC(F)F)CN1C(=O)CNC(=O)c1ccc(Oc2ccc(F)cc2)cc1)c1ccc(C(=N)N)s1", "note": "[Compound 57, (2S,4R)—N—((R)-1-(5-carbamimidoylthiophen-2-yl)ethyl)-4-(difluoromethoxy)-1-((4-(4-fluorophenoxy)benzoyl)glycyl)pyrrolidine-2-carboxamide]", "IC50": "< 100"}
{"smiles": "C[C@@H](NC(=O)[C@@H]1C[C@@H](S(C)(=O)=O)CN1C(=O)CNC(=O)c1ccc(C(F)(F)c2ccccc2)cc1)c1cc(C(=N)N)cs1", "note": "[Compound 168, (2S,4R)—N—((R)-1-(4-carbamimidoylthiophen-2-yl)ethyl)-1-((4-(difluoro(phenyl)methyl)benzoyl)glycyl)-4-(methylsulfonyl)pyrrolidine-2-carboxamide]", "IC50": "< 100"}
{"smiles": "C[C@@H](NC(=O)[C@@H]1C[C@](F)(CF)CN1C(=O)CNC(=O)c1ccc(Oc2ccc(F)cc2)cc1)c1ccc(C(=N)N)s1", "note": "[Compound 40, (2S,4R)—N—((R)-1-(5-carbamimidoylthiophen-2-yl)ethyl)-4-fluoro-4-(fluoromethyl)-1-((4-(4-fluorophenoxy)benzoyl)glycyl)pyrrolidine-2-carboxamide]", "IC50": "< 100"}
{"smiles": "N=C(N)c1csc(CNC(=O)[C@@H]2CC3(CN2C(=O)CNC(=O)c2ccc(-c4ccccc4)cc2F)OCCO3)c1", "note": "[Compound 83, (S)—N-((4-carbamimidoylthiophen-2-yl)methyl)-7-((3-fluoro-[1,1′-biphenyl]-4-carbonyl)glycyl)-1,4-dioxa-7-azaspiro[4.4]nonane-8-carboxamide]", "IC50": "< 100"}
{"target": "Human complement C1s enzyme (Homo sapiens (Human), UniProt P09871)", "experiment": "Human C1s enzyme assay", "type": "biochemical", "conditions": "Human complement C1s enzyme 1.16 nM, substrate Z-L-Lys-SBzl 100 μM, assay of Example 3; read-out: IC50 (Stars)", "how_it_was_run": "as §1", "units": {"IC50": "nM"}}
{"smiles": "COC[C@@]1(F)C[C@@H](C(=O)N[C@H](CO)c2cc(C(=N)N)cs2)N(C(=O)CNC(=O)c2ccc3c(c2)C(F)(F)c2ccccc2-3)C1", "note": "[Compound 397, (2S,4R)—N—((R)-1-(4-carbamimidoylthiophen-2-yl)-2-hydroxyethyl)-1-((9,9-difluoro-9H-fluorene-2-carbonyl)glycyl)-4-fluoro-4-(methoxymethyl)pyrrolidine-2-carboxamide]", "IC50": "< 100"}
{"smiles": "C[C@@H](NC(=O)[C@@H]1C[C@@H](S(C)(=O)=O)CN1C(=O)CNC(=O)c1ccc2c(c1)-c1ccccc1C2OC(F)F)c1cc(C(=N)N)cs1", "note": "(stereo partly drawn) [Compound 392, (2S,4R)—N—((R)-1-(4-carbamimidoylthiophen-2-yl)ethyl)-1-((9-(difluoromethoxy)-9H-fluorene-3-carbonyl)glycyl)-4-(methylsulfonyl)pyrrolidine-2-carboxamide]", "IC50": "< 100"}
{"smiles": "N=C(N)c1csc(CNC(=O)[C@@H]2CC3(CN2C(=O)CN2Cc4cc(-c5ccc(F)cc5)ccc4C2=O)OCCO3)c1", "note": "[Compound 230]", "IC50": "< 100"}
{"smiles": "N=C(N)c1csc(CNC(=O)[C@@H]2CC3(CNC3)CN2C(=O)CNC(=O)CCCOc2ccccc2)c1", "note": "[Compound 273, (S)—N-((4-carbamimidoylthiophen-2-yl)methyl)-6-((4-phenoxybutanoyl)glycyl)-2,6-diazaspiro[3.4]octane-7-carboxamide]", "IC50": "< 100"}
{"smiles": "C[C@@H](NC(=O)[C@@H]1C[C@@H](CO)CN1C(=O)CNC(=O)c1ccc2c(c1)-c1ccccc1C2(F)F)c1cc(C(=N)N)cs1", "note": "(relative stereo) [Compound 305, (2S,4R*)—N—((R)-1-(4-carbamimidoylthiophen-2-yl)ethyl)-1-((9,9-difluoro-9H-fluorene-3-carbonyl)glycyl)-4-(hydroxymethyl)pyrrolidine-2-carboxamide]", "IC50": "< 100"}
{"smiles": "NCCCCNc1csc(CNC(=O)[C@@H]2CC3(CN2C(=O)CNC(=O)c2ccc(Oc4ccc(F)cc4)cc2)OCCO3)c1", "note": "[Compound 318, (S)-N-((4-((4-aminobutyl)amino)thiophen-2-yl)methyl)-7-((4-(4-fluorophenoxy)benzoyl)glycyl)-1,4-dioxa-7-azaspiro[4.4]nonane-8-carboxamide]", "IC50": "> 1000"}
{"smiles": "Cc1ccc(-c2cccc(C(=O)NCC(=O)N3C[C@H](S(C)(=O)=O)C[C@H]3C(=O)N[C@H](C)c3cc(C(=N)N)cs3)c2)cc1", "note": "[Compound 335, (2S,4R)—N—((R)-1-(4-carbamimidoylthiophen-2-yl)ethyl)-1-((4′-methyl-[1,1′-biphenyl]-3-carbonyl)glycyl)-4-(methylsulfonyl)pyrrolidine-2-carboxamide]", "IC50": "< 100"}
